Measurements taken from US20260345641A1, “COMPOSITIONS AND USES THEREOF” (Algorae Pharmaceuticals Ltd, priority 2023, published 2026).

Tested on: SH-SY5Y cells
Test: Gene expression analysis by RNA sequencing in the presence of Aβ
Format: cell-based, human
Conditions: 5 μM, with Aβ
Description: The SH-S5Y5 neuroblastoma cell line was used for pre-clinical analysis. The SH-S5Y5 cell line is commonly used as a model for neurodegenerative disorders as the cells can be converted to various types of functional neurons by the addition of specific compounds (see, e.g., Xicoy et al., 2017, Molecular Neurodegeneration, 12: 10). In addition, the SH-S5Y5 cell line has been used widely in experimental neurological studies, including analysis of neuronal differentiation, metabolism, and function related to neurodegenerative processes, neurotoxicity and neuroprotection (see, e.g., Datki et al., 2003, Brain Research Bulletin, 62(3): 22-229; and Xie et al., 2010, Chinese Medical Journal, 123(8): 1086-1092).
Total RNA was isolated from cells using TRIzol in accordance with the manufacturer's instructions (Invitrogen, Carlsbad, CA, USA). RNA concentration and quality was assessed using a NanoDrop spectrophotometer. Only samples with a 260/280 ratio of ≥1.8 were used for further analysis.
Messenger RNA (mRNA) was purified from total RNA using poly-T oligo attached magnetic beads. After fragmentation, cDNA synthesis was performed in accordance with the manufacturer's instructions (Illumina, San Diego, CA, USA) to generate a directional and non-directional library. Libraries were checked with Qubit, real-time PCR was performed for quantification, and size distribution detection was performed using the Bioanalyzer. Quantified libraries were pooled and sequenced on an Illumina platform, according to the manufacturer's instructions.
Raw reads were filtered and mapped to human reference genome (GRCh38/hg38) using HISAT2. Differential gene expression analysis was performed using R Package DEG seq2. […] Manual annotation of genes previously associated with specific neurodegenerative disorders and dementias was performed following a text mining analysis.

COc1cc2c(cc1OC)C(=O)C(CC1CCN(Cc3ccccc3)CC1)C2 (stereo not shown) [Donepezil]
ATP13A2 gene expression (control 7.789, P 0.022): 5.931
TUBB4A gene expression (control 7.889, P 0.013): 12.522
C19orf12 gene expression (control 8.149, P 0.002): 8.062
COMT gene expression (control 8.395, P 0.009): 7.242
CLCN6 gene expression (control 8.460, P 0.007): 9.489
SLC2A1 gene expression (control 8.472, P 0.018): 9.539
KIF5A gene expression (control 8.491, P 0.023): 7.978
MT-TE gene expression (control 8.733, P 0.049): 14.784
ASTN2 gene expression (control 8.739, P 0.008): 10.467
GAP43 gene expression (control 8.840, P 0.016): 14.884
HTRA1 gene expression (control 8.986, P 0.035): 3.452
GPT2 gene expression (control 9.062, P 0.018): 9.323
RELN gene expression (control 9.086, P 0.007): 8.830
MAP2 gene expression (control 9.232, P 0.018): 13.284
FAR1 gene expression (control 9.502, P 0.001): 9.330
ULK1 gene expression (control 9.616, P 0.008): 7.435
MT-TR gene expression (control 9.625, P 0.053): 7.395
AUH gene expression (control 9.982, P 0.001): 9.689
UBQLN2 gene expression (control 10.132, P 0.055): 10.681
TP53 gene expression (control 10.247, P 0.010): 10.184
RNF216 gene expression (control 10.517, P 0.005): 11.360
LMNB1 gene expression (control 10.575, P 0.020): 13.789
SDHA gene expression (control 10.591, P 0.002): 10.690
CTSF gene expression (control 10.619, P 0.034): 12.207
PHIP gene expression (control 10.884, P 0.000): 10.131
NEAT1 gene expression (control 10.972, P 0.010): 8.854
GSR gene expression (control 10.993, P 0.009): 14.077
NBEA gene expression (control 11.016, P 0.010): 12.180
HEXB gene expression (control 11.029, P 0.010): 11.767
NIPA1 gene expression (control 11.189, P 0.025): 10.862
PDGFRA gene expression (control 11.237, P 0.009): 11.624
SORT1 gene expression (control 11.268, P 0.004): 9.054
DLAT gene expression (control 11.385, P 0.035): 10.390
CTSA gene expression (control 11.863, P 0.001): 12.014
AIFM1 gene expression (control 11.948, P 0.026): 10.769
KIF4A gene expression (control 12.106, P 0.000): 12.317
PIK3CA gene expression (control 12.209, P 0.057): 9.685
MT-TM gene expression (control 12.408, P 0.006): 7.334
PSEN1 gene expression (control 12.549, P 0.033): 10.463
CST3 gene expression (control 12.563, P 0.049): 14.607
PNKP gene expression (control 12.578, P 0.015): 13.753
UBE4A gene expression (control 12.586, P 0.050): 11.589
PANK2 gene expression (control 12.767, P 0.010): 5.414
PINK1 gene expression (control 12.825, P 0.001): 9.640
SERPINI1 gene expression (control 12.857, P 0.025): 12.924
NEFL gene expression (control 13.063, P 0.010): 22.943
TOMM40 gene expression (control 13.758, P 0.001): 15.441
PMPCA gene expression (control 13.790, P 0.022): 11.969
PRKAR1B gene expression (control 13.838, P 0.000): 14.889
NGF gene expression (control 14.274, P 0.012): 1.165
EIF2B5 gene expression (control 14.483, P 0.017): 12.247
NEFH gene expression (control 14.777, P 0.018): 13.335
TBK1 gene expression (control 15.661, P 0.052): 12.891
SPG21 gene expression (control 15.666, P 0.035): 17.306
MIR103A2 gene expression (control 15.688, P 0.029): 9.508
DNAJC5 gene expression (control 16.143, P 0.004): 18.101
SDHAF1 gene expression (control 16.174, P 0.024): 17.490
ALDH18A1 gene expression (control 16.206, P 0.012): 18.398
BIRC6 gene expression (control 16.315, P 0.045): 14.545
SMCR8 gene expression (control 16.386, P 0.025): 9.923
SCARB2 gene expression (control 16.783, P 0.011): 20.762
HCFC1 gene expression (control 17.149, P 0.014): 21.365
MT-TV gene expression (control 17.283, P 0.000): 9.882
KCTD7 gene expression (control 18.066, P 0.016): 14.737
CDK1 gene expression (control 18.213, P 0.001): 31.665
WDR45 gene expression (control 18.358, P 0.008): 10.730
ATP6V1A gene expression (control 18.408, P 0.038): 16.105
ATXN7L3B gene expression (control 19.279, P 0.006): 20.868
MT-TY gene expression (control 19.436, P 0.034): 14.109
DNAJB6 gene expression (control 19.482, P 0.010): 13.438
MT-TN gene expression (control 19.578, P 0.001): 4.546
DNMT1 gene expression (control 19.641, P 0.019): 19.982
HRAS gene expression (control 19.713, P 0.000): 18.552
SNHG1 gene expression (control 19.818, P 0.004): 17.384
SYP gene expression (control 20.006, P 0.004): 15.060
BACE1 gene expression (control 20.034, P 0.031): 16.945
ACHE gene expression (control 20.557, P 0.010): 15.012
SMARCC1 gene expression (control 21.060, P 0.050): 23.108
CPT1C gene expression (control 21.622, P 0.000): 23.209
SETD1A gene expression (control 22.012, P 0.020): 11.489
LRP10 gene expression (control 23.073, P 0.013): 19.237
DIAPH1 gene expression (control 23.288, P 0.016): 23.289
NDUFS4 gene expression (control 23.590, P 0.040): 31.457
TIA1 gene expression (control 24.343, P 0.029): 18.552
SORCS1 gene expression (control 24.655, P 0.014): 27.879
MADD gene expression (control 24.804, P 0.015): 17.028
MAP1B gene expression (control 25.187, P 0.004): 31.197
PNPLA6 gene expression (control 25.949, P 0.007): 14.472
HTRA2 gene expression (control 26.112, P 0.003): 24.427
FUS gene expression (control 26.563, P 0.006): 23.115
CHRNA3 gene expression (control 26.776, P 0.015): 35.011
STARD7 gene expression (control 27.791, P 0.022): 25.690
RGS4 gene expression (control 28.376, P 0.019): 23.445
RRM2B gene expression (control 28.427, P 0.027): 15.106
OTUD5 gene expression (control 29.629, P 0.024): 29.255
MMADHC gene expression (control 29.814, P 0.009): 28.376
PHF1 gene expression (control 31.064, P 0.022): 22.592
XPR1 gene expression (control 31.247, P 0.010): 53.075
TFG gene expression (control 31.479, P 0.015): 30.210
DEGS1 gene expression (control 32.375, P 0.003): 28.878
SQSTM1 gene expression (control 32.378, P 0.007): 38.955
TCF4 gene expression (control 32.383, P 0.017): 36.707
PDGFRB gene expression (control 32.930, P 0.001): 20.075
UNC5C gene expression (control 33.422, P 0.001): 34.253
COL3A1 gene expression (control 34.958, P 0.008): 29.884
MT-TQ gene expression (control 37.146, P 0.001): 28.576
NID1 gene expression (control 38.202, P 0.008): 51.536
COASY gene expression (control 38.304, P 0.003): 24.487
TMEM230 gene expression (control 40.014, P 0.054): 35.809
GRN gene expression (control 43.913, P 0.009): 38.715
SOD1 gene expression (control 44.413, P 0.023): 54.134
HNRNPDL gene expression (control 44.506, P 0.001): 58.385
EIF4G1 gene expression (control 46.194, P 0.005): 47.437
VCP gene expression (control 49.074, P 0.025): 49.391
ATP6V1E1 gene expression (control 51.257, P 0.048): 41.488
GBA2 gene expression (control 53.427, P 0.010): 42.069
PARK7 gene expression (control 54.907, P 0.006): 62.824
EEF1A2 gene expression (control 63.840, P 0.016): 77.336
MT-TP gene expression (control 74.063, P 0.023): 57.524
U2AF2 gene expression (control 88.738, P 0.014): 53.895
MT-TS1 gene expression (control 108.757, P 0.004): 75.947
PRDX1 gene expression (control 137.725, P 0.007): 123.771
HNRNPA1 gene expression (control 180.363, P 0.003): 274.269
GNAS gene expression (control 193.754, P 0.003): 202.087
MT-ND6 gene expression (control 281.366, P 0.001): 64.249
APP gene expression (control 293.865, P 0.033): 159.632
PFN1 gene expression (control 386.845, P 0.010): 384.213
MT-ATP8 gene expression (control 388.214, P 0.017): 298.175
FTL gene expression (control 423.318, P 0.015): 514.018
MT-ND5 gene expression (control 1304.948, P 0.012): 1379.984
MT-ND1 gene expression (control 2654.440, P 0.010): 2177.390
MT-ND2 gene expression (control 2855.888, P 0.019): 2011.949
MT-CYB gene expression (control 4523.043, P 0.003): 4140.601
MT-CO3 gene expression (control 6360.482, P 0.003): 6139.890
MT-ATP6 gene expression (control 6754.328, P 0.009): 5525.655
COL4A1 gene expression (first listing, control 3.205, P 0.014): 6.341
APBB2 gene expression (first listing, control 7.376, P 0.015): 5.038
MTR gene expression (first listing, control 7.739, P 0.018): 9.723
DNAJC6 gene expression (first listing, control 11.205, P 0.017): 14.537
TWNK gene expression (first listing, control 25.053, P 0.010): 15.384
COL4A1 gene expression (second listing, control 3.206, P 0.014): 4.649
APBB2 gene expression (second listing, control 7.118, P 0.015): 6.231
MTR gene expression (second listing, control 8.443, P 0.018): 8.954
DNAJC6 gene expression (second listing, control 12.142, P 0.017): 12.821
TWNK gene expression (second listing, control 22.506, P 0.010): 19.867
